Values after ≈ are worked out from the molar mass of the structure shown. Active and inactive are the calls of the source. The rule behind the calls is not given here.
Legend:
[1] = Permeability of compound by PAMPA assay; type: ADME; settings: for Papp: read-out: permeability
MOLT-4 [2] = experiment: Antiproliferative activity against human MOLT-4 cells assessed as inhibition of cell growth with replenishment of medium with compound on day 4 and 7 by ATPlite assay; type: functional
[3] = Aqueous solubility of compound at pH 7.4 measured for 1 hr by UV-plate reader analysis; type: physicochemical; settings: buffer
MOLT-4 [4] = experiment: Antiproliferative activity against human MOLT-4 cells assessed as inhibition of cell growth with replenishment of medium with compound on day 4 and 7 and measured after 12 days by ATPlite assay; type: functional; settings: MOLT-4, 288 h, time 12 day
[5] = Microsomal stability in mouse liver microsomes assessed as parent compound remaining after 30 mins in presence of NADPH by LC -MS/MS analysis; type: ADME, Microsome; settings: read-out: Stability
[6] = Microsomal stability in human liver microsomes assessed as parent compound remaining after 30 mins in presence of NADPH by LC -MS/MS analysis; type: ADME, Microsome; settings: read-out: Stability
[7] = molecular target: T1, Histone-lysine N-methyltransferase EHMT1 (Homo sapiens, UniProt Q9H9B1); experiment: Inhibition of GLP (unknown origin)
T1 sequence (Q9H9B1 whole entry): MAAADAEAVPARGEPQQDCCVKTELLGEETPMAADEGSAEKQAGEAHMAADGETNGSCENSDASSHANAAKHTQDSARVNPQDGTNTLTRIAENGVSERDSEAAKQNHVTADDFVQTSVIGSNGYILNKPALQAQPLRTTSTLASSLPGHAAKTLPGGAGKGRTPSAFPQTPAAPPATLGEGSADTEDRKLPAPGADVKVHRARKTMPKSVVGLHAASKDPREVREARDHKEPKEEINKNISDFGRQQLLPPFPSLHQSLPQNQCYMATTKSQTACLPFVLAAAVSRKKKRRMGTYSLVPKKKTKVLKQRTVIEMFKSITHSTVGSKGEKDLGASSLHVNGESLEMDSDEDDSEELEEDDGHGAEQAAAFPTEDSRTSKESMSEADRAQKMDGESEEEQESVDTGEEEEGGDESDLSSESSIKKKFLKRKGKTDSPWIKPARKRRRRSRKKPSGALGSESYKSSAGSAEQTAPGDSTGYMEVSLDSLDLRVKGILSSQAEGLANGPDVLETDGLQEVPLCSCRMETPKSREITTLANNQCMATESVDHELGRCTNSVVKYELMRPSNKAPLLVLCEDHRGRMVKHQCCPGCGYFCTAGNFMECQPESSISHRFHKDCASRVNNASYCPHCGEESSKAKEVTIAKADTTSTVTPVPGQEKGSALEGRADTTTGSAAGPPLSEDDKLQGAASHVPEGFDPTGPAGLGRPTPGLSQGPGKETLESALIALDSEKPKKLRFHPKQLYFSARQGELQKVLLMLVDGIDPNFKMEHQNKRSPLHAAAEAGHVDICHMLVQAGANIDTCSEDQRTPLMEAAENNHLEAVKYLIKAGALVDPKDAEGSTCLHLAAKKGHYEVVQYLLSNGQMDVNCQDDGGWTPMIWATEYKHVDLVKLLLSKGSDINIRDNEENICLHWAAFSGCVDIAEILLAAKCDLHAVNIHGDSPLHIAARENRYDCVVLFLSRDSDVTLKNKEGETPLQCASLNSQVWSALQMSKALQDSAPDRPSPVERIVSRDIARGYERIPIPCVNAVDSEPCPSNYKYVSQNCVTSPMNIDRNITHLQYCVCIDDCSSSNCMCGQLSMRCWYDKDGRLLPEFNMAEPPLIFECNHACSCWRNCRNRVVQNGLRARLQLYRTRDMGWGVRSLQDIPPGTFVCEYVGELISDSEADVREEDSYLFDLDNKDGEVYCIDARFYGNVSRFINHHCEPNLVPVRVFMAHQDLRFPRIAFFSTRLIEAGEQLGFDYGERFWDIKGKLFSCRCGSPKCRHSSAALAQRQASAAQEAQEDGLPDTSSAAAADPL

[8] = molecular target: T2, Histone-lysine N-methyltransferase EHMT2 (Homo sapiens, UniProt Q96KQ7); experiment: Inhibition of G9a (unknown origin)
T2 sequence (Q96KQ7 whole entry): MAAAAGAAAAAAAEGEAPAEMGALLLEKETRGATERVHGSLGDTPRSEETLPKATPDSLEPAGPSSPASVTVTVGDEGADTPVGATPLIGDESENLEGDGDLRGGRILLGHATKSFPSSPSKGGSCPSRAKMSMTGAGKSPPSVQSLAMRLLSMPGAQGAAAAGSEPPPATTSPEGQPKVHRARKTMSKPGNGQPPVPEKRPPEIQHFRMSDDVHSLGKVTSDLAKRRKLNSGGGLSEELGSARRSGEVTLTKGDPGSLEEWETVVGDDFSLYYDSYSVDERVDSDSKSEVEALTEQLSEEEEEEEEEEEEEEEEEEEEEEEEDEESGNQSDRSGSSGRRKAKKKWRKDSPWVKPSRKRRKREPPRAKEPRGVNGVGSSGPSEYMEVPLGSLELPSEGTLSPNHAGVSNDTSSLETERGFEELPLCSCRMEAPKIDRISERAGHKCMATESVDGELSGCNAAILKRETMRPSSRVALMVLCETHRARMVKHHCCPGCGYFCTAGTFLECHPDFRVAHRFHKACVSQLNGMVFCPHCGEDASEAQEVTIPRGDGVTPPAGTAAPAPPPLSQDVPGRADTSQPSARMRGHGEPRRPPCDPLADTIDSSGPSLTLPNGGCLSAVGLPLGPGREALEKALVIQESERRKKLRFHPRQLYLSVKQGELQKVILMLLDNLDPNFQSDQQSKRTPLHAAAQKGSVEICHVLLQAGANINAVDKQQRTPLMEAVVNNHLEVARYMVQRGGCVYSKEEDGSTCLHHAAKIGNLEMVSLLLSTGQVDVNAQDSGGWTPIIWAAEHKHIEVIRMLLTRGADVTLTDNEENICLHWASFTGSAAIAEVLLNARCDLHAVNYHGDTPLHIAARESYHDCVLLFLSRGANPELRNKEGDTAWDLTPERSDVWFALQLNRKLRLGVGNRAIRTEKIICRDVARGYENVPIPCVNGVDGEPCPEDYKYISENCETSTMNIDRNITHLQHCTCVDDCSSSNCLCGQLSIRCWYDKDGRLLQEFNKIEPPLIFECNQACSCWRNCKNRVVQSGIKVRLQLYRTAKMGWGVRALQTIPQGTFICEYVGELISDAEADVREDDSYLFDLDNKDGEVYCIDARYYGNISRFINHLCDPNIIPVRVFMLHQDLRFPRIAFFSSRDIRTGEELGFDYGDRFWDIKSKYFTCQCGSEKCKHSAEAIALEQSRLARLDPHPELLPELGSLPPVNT

MOLT-4 [9] = experiment: Downregulation of H3K9 dimethylation in human MOLT-4 cells at 0.1 uM by Western blot analysis; type: functional, cell-based
[10] = molecular target: T2, Histone-lysine N-methyltransferase EHMT2; experiment: Inhibition of N-terminal GST-tagged human recombinant G9a (785 to 1210 residues) expressed in baculovirus infected Sf9 cells incubated for 1 hr by AlphaLISA analysis
[11] = Cmax in ICR mouse at 25 mg/kg, ip; type: ADME, organism-based; design: dose 25 mg/kg, route ip; settings: in vivo
[12] = Tmax in ICR mouse at 25 mg/kg, ip; type: ADME, organism-based; settings: in vivo
[13] = AUC (0 to infinity) in ICR mouse at 25 mg/kg, ip; type: ADME, organism-based; design: dose 25 mg/kg, route ip; settings: in vivo
MOLT-4 [14] = experiment: Downregulation of H3K9 dimethylation in human MOLT-4 cells at 1 uM by Western blot analysis; type: functional, cell-based
[15] = Half life in ICR mouse at 25 mg/kg, ip; type: ADME, organism-based; settings: in vivo
Mus musculus [16] = experiment: In vivo inhibition of G9a in C57BL/6 mouse liver assessed as H3 histone methylation at 20 to 50 mg/kg, ip measured after 5 days by Westernblot analysis; type: functional, organism-based; settings: dose 20-50 mg/kg, time 5.0 day
[17] = Toxicity in C57BL/6 mouse assessed as body weight loss at 20 to 50 mg/kg, ip measured after 48 weeks; type: organism-based; settings: in vivo, 8064 h, dose 20-50 mg/kg
[18] = Drug concentration in C57BL/6 mouse plasma at 20 mg/kg, ip measured after 4 hrs; type: ADME, organism-based
HCC = experiment: Antitumor activity against DEN-induced […] HCC tumor in C57BL/6 mouse at 20 to 50 mg/kg, ip measured after 48 weeks; type: functional, organism-based; settings: dose 20-50 mg/kg
[19] = Drug concentration in C57BL/6 mouse liver at 50 mg/kg, ip measured after 4 hrs; type: ADME, organism-based; settings: read-out: Ct
[20] = Drug concentration in C57BL/6 mouse liver at 20 mg/kg, ip measured after 4 hrs; type: ADME, organism-based; settings: read-out: Ct
[21] = Drug concentration in C57BL/6 mouse plasma at 50 mg/kg, ip measured after 4 hrs; type: ADME, organism-based
Mus musculus [22] = experiment: In vivo inhibition of G9a in C57BL/6 mouse liver assessed as reduction in H3K9me2 level at 20 to 50 mg/kg, ip measured after 5 days by Westernblot analysis; type: functional, organism-based; settings: dose 20-50 mg/kg, time 5.0 day

GI50 (MOLT-4 [2]) [nM] | solubility at 1 h [3] [µM] | GI50 (MOLT-4 [4]) [nM] | remaining at 0.5 h [5] [%] | remaining at 0.5 h [6] [%] | IC50 [10] [nM] | Structure (SMILES) | also measured
188 | > 200 | 188 | 67 | 89.7 |  | COc1cc2c(NC3CCN(C(C)C)CC3)nc(C3CCCCC3)nc2cc1OCCCN1CCCC1 | permeability [1]: 1.89 10^-6 cm/s
 |  |  |  |  |  | COc1cc2c(cc1C1=CCN(C)CCC1)N=C(N)C21CCC1 | IC50 [7]: 75.7 nM; IC50 [8]: 12.6 nM
21.3 | 13.6 (≈ 6.07 µg/mL) | 21.3 | 19.3 | 55.5 | 27 | Cc1c(C(=O)N[C@@H](CCC2CC2)C(=O)Nc2ccc(C#N)cc2)[nH]c2c1C(=O)CC(C)(C)C2 | Activity (MOLT-4 [9]): Active; Papp [1]: 3.12 ×10⁻⁶ cm/s; IC50 ([10]; sf9): 27 nM
 |  | 1790 |  |  | 2100 | Cc1c(C(=O)N[C@H](CCC2CC2)C(=O)Nc2ccccc2)[nH]c2c1C(=O)CC(C)(C)C2 | Cmax [11]: 4.14 µM; Tmax [12]: 4 h; AUC(0-inf) [13]: 10.3 µM·h; Activity (MOLT-4 [14]): inactive; half-life [15]: 34.8 min
220 | 4 (≈ 1.84 µg/mL) |  | 40.5 | 51.9 | 50 | CCc1c(C(=O)N[C@@H](CCC2CC2)C(=O)Nc2ccc(C#N)cc2)[nH]c2c1C(=O)CC(C)(C)C2 | 
 |  | 2370 |  |  |  | Cc1c(C(=O)N[C@H](CCC2CC2)C(=O)Nc2ccc(C#N)cc2)[nH]c2c1C(=O)CC(C)(C)C2 | Cmax [11]: 42.4 µM; IC50 [7]: 53 nM; Tmax [12]: 4 h; inhibition (Mus musculus [16]): inactive; Activity [17]: Non-Toxic; concentration at 4 h [18]: 9.6 µM; Activity (HCC): Active; concentration at 4 h [19]: 46.9 µM; concentration at 4 h [20]: 23.5 µM; IC50 [8]: 27 nM; concentration at 4 h [21]: 18.9 µM; Activity (Mus musculus [22]): Active; AUC(0-inf) [13]: 418 µM·h; Activity (MOLT-4 [14]): inactive; half-life [15]: 84 min
61.5 | 32.4 (≈ 13.7 µg/mL) |  | 7.1 | 36.5 | 39.6 | Cc1c(C(=O)N[C@@H](CCC2CC2)C(=O)Nc2ccccc2)[nH]c2c1C(=O)CC(C)(C)C2 | Activity (MOLT-4 [9]): Active; Papp [1]: 6.35 ×10⁻⁶ cm/s
176 | 50.8 (≈ 22.2 µg/mL) |  | 38.1 | 40.2 | 50 | Cc1ccc(NC(=O)[C@@H](CCC2CC2)NC(=O)c2[nH]c3c(c2C)C(=O)CC(C)(C)C3)cn1 | Papp [1]: 9.64 ×10⁻⁶ cm/s
91.3 | 3.7 (≈ 1.76 µg/mL) |  | 70.8 | 1.8 | 55 | CC(C)c1c(C(=O)N[C@@H](CCC2CC2)C(=O)Nc2ccc(C#N)cc2)[nH]c2c1C(=O)CC(C)(C)C2 | 
 |  | 278 |  |  | 66.7 | Cc1c(C(=O)NC(CCC2CC2)C(=O)Nc2ccc(C#N)cc2)[nH]c2c1C(=O)CC(C)(C)C2 (racemic) | 
 |  | 1790 |  |  |  | Cc1c(C(=O)NC(CCC2CC2)C(=O)Nc2ccccc2)[nH]c2c1C(=O)CC(C)(C)C2 (racemic) | 

Reference: ChEMBL document CHEMBL5247652, “Discovery of Novel Substrate-Competitive Lysine Methyltransferase G9a Inhibitors as Anticancer Agents” (J Med Chem, 2023)
